# Experimental data taken from the supplement of paper PMC10307832.
# Legend:
# Assay in all cases: relative viability (nuclei count vs DMSO), 5 days (fraction); higher = more cells survive
# [1] = compound: O=c1[nH]cc(F)c(=O)[nH]1 [5-Fluorouracil] + C[C@@H](Oc1cc(-c2cnn(C3CCNCC3)c2)cnc1N)c1c(Cl)ccc(F)c1Cl [Crizotinib] (partner 1 µM)
# Procedure, shortened: (§1)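 Dosing by pin tool came one day after lung cancer cell lines were seeded in 1536-well plates, using either one drug or a fixed anchor-drug dose plus five library-drug doses (not always all listed) in √10 steps. After 5 days, nuclei were counted on 4× images. Relative viability is treated-well nuclei count divided by vehicle-well nuclei count, and values are medians of duplicate plates.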
# [2] = compound: O=c1[nH]cc(F)c(=O)[nH]1 [5-Fluorouracil] + Cc1nc(NC(=O)N2CCC[C@H]2C(N)=O)sc1-c1ccnc(C(C)(C)C(F)(F)F)c1 [Alpelisib] (partner 2 µM)
# Procedure, shortened: as §1
# [3] = compound: O=c1[nH]cc(F)c(=O)[nH]1 [5-Fluorouracil] + COc1cc2c(Oc3ccc(NC(=O)C4(C(=O)Nc5ccc(F)cc5)CC4)cc3F)ccnc2cc1OCCCN1CCOCC1 [Foretinib] (partner 0.25 µM)
# Procedure, shortened: as §1
# [4] = compound: O=c1[nH]cc(F)c(=O)[nH]1 [5-Fluorouracil] + Cc1cc(Nc2cc(N3CCN(C)CC3)nc(Sc3ccc(NC(=O)C4CC4)cc3)n2)n[nH]1 [Tozasertib] (partner 0.1 µM)
# Procedure, shortened: as §1
# 5-Fluorouracil + OSI-027 = compound: O=c1[nH]cc(F)c(=O)[nH]1 [5-Fluorouracil] + COc1cccc2cc(-c3nc([C@H]4CC[C@H](C(=O)O)CC4)n4ncnc(N)c34)[nH]c12 [OSI-027] (partner 0.5 µM)
# Procedure, shortened: as §1
Cell Line,relative viability ([1]; first compound 0.02 µM),relative viability ([1]; first compound 0.2 µM),relative viability ([1]; first compound 0.6325 µM),relative viability ([1]; first compound 2 µM),relative viability ([2]; first compound 0.02 µM),relative viability ([2]; first compound 0.2 µM),relative viability ([2]; first compound 0.6325 µM),relative viability ([2]; first compound 2 µM),relative viability ([3]; first compound 0.02 µM),relative viability ([3]; first compound 0.2 µM),relative viability ([3]; first compound 0.6325 µM),relative viability ([3]; first compound 2 µM),relative viability ([4]; first compound 0.02 µM),relative viability ([4]; first compound 0.2 µM),relative viability ([4]; first compound 0.6325 µM),relative viability ([4]; first compound 2 µM),relative viability (5-Fluorouracil + OSI-027; first compound 0.02 µM),relative viability (5-Fluorouracil + OSI-027; first compound 0.2 µM),relative viability (5-Fluorouracil + OSI-027; first compound 0.6325 µM),relative viability (5-Fluorouracil + OSI-027; first compound 2 µM)
NCI-H1299,0.952,0.976,0.943,0.682,1.11,1.14,0.953,0.763,1.14,1.12,1.08,0.908,,,,,,,,
NCI-H1395,,,,,1.1,1.02,1.14,0.844,0.827,1.14,1.05,0.987,0.652,0.837,0.737,0.8,0.505,0.738,0.579,0.684
NCI-H1563,0.798,0.806,0.892,0.699,0.772,0.931,0.821,0.841,0.927,0.909,0.862,0.761,,,,,0.679,0.791,0.7,0.696
NCI-H1623,,,,,,,,,0.567,0.35,0.306,0.259,0.38,0.314,0.264,0.248,0.384,0.339,0.339,0.323
NCI-H1648,,,,,,,,,,,,,0.442,0.457,0.372,0.207,0.246,0.269,0.264,0.245
NCI-H1650,0.859,0.801,0.505,0.367,,,,,0.963,1.09,0.776,0.37,0.408,0.401,0.317,0.211,0.515,0.496,0.383,0.349
NCI-H1703,0.83,0.564,0.378,0.479,0.279,0.327,0.371,0.359,0.341,0.383,0.341,0.348,,,,,,,,
NCI-H1792,1.07,0.943,0.31,0.164,0.691,0.606,0.168,0.116,,,,,,,,,0.838,0.602,0.317,0.222
NCI-H1793,,,,,0.673,0.658,0.543,0.493,0.683,0.674,0.57,0.406,0.318,0.349,0.398,0.251,0.283,0.369,0.303,0.207
NCI-H2342,,,,,,,,,0.961,1,0.885,0.786,0.484,0.471,0.626,0.443,0.698,0.731,0.735,0.638
SW 900,,,,,,,,,0.629,0.799,0.729,0.569,0.595,0.644,0.602,0.421,0.505,0.501,0.44,0.423
